From patent publication US4379917A, “6"-(Substituted)-apramycin antibiotic derivatives and intermediates and starting materials therefor” (Eli Lilly and Company, priority 1981, dated 1983)
Converted amounts (≈) assume the structure as drawn. Like-named read-outs stand apart in the source and are kept apart here.

Experiments:
Assay type in all cases: cell-based
[1] = tested on: Enterobacter cloacae EB24; assay: MIC by standard agar dilution test; details: EB24, read-out: Minimum Inhibitory Concentration
[2] = tested on: Pseudomonas aeruginosa Ps9; assay: MIC by standard agar dilution test; details: PS9, Table 1, agar dilution, read-out: Minimum Inhibitory Concentration
Salmonella typhosa SA12 = assay: MIC by standard agar dilution test; details: Salmonella enterica, read-out: Minimum Inhibitory Concentration
[3] = tested on: Staphylococcus aureus 3055; assay: MIC by standard agar dilution test; details: Staphylococcus aureus, 3055, read-out: Minimum Inhibitory Concentration
[4] = tested on: Pseudomonas aeruginosa X528; assay: MIC by standard agar dilution test; details: X528, Table 1, agar dilution, read-out: Minimum Inhibitory Concentration
Serratia marcescens X99 = assay: MIC by standard agar dilution test; details: X99, read-out: Minimum Inhibitory Concentration
[5] = tested on: Enterobacter aerogenes EB17; assay: MIC by standard agar dilution test; details: Klebsiella aerogenes, EB17, read-out: Minimum Inhibitory Concentration
[6] = tested on: Pseudomonas aeruginosa Ps25; assay: MIC by standard agar dilution test
Proteus inconstans PV25 = assay: MIC by standard agar dilution test; details: Providencia alcalifaciens
Proteus morganii PR15 = assay: MIC by standard agar dilution test; details: Morganella morganii, PR15; Table II; agar dilution; read-out: Minimum Inhibitory Concentration
[7] = tested on: Klebsiella pneumoniae KL14; assay: MIC by standard agar dilution test; details: KL14, read-out: Minimum Inhibitory Concentration
[8] = tested on: Pseudomonas aeruginosa X48; assay: MIC by standard agar dilution test
[9] = tested on: Bordetella bronchiseptica 16; assay: MIC by standard agar dilution test; details: Bordetella bronchiseptica, 16; Table II; agar dilution; read-out: Minimum Inhibitory Concentration
Escherichia coli EC14 = assay: MIC by standard agar dilution test
[10] = tested on: Enterobacter cloacae EN453; assay: MIC by standard agar dilution test
[11] = tested on: Klebsiella pneumoniae KL2; assay: MIC by standard agar dilution test
Proteus morganii PR2 = assay: MIC by standard agar dilution test; details: Morganella morganii, PR2; Table 1; agar dilution; read-out: Minimum Inhibitory Concentration
[12] = tested on: Pseudomonas aeruginosa Ps15; assay: MIC by standard agar dilution test
[13] = tested on: Pseudomonas solanacearum X185; assay: microbe, parasite or virus in culture; details: Ralstonia solanacearum, X185, read-out: Minimum Inhibitory Concentration
Proteus morganii PR1 = assay: MIC by standard agar dilution test; details: Morganella morganii
[14] = tested on: Pseudomonas aeruginosa PI23; assay: MIC by standard agar dilution test; details: PI23, Table 1, agar dilution, read-out: Minimum Inhibitory Concentration
[15] = tested on: Pseudomonas aeruginosa SF-2; assay: MIC by standard agar dilution test
[16] = tested on: Pseudomonas aeruginosa X239; assay: MIC by standard agar dilution test
Salmonella typhimurium = assay: MIC by standard agar dilution test; details: Salmonella enterica, read-out: Minimum Inhibitory Concentration
[17] = tested on: Staphylococcus aureus 3074; assay: MIC by standard agar dilution test; details: Table II, read-out: Minimum Inhibitory Concentration
Excerpt: (§1) The antibacterial activity of the antibiotic compounds of this invention is illustrated by the following in vitro and in vivo test data obtained with representative compounds. In Tables I and II the minimum inhibitory concentration (MIC) for representative compounds against a wide range of gram-positive and gram-negative bacteria is presented. The MIC values were obtained by the standard agar dilution test.

[18] = tested on: Citrobacter freundii CF17; assay: MIC by standard agar dilution test; details: CF17, read-out: Minimum Inhibitory Concentration
[19] = tested on: Streptococcus faecalis X66; assay: MIC by standard agar dilution test; details: Enterococcus faecalis, X66; Table II; agar dilution; read-out: Minimum Inhibitory Concentration
[20] = tested on: Enterobacter aerogenes EB6; assay: MIC by standard agar dilution test; details: Klebsiella aerogenes, EB6, read-out: Minimum Inhibitory Concentration
[21] = tested on: Pseudomonas aeruginosa 4276; assay: MIC by standard agar dilution test
Serratia marcescens SE3 = assay: MIC by standard agar dilution test
Serratia marcescens SE2 = assay: MIC by standard agar dilution test
Erwinia amylovora = assay: MIC by standard agar dilution test; details: Table II, read-out: Minimum Inhibitory Concentration
Excerpt: as §1

[22] = X239, Table 1, read-out: Minimum Inhibitory Concentration
[23] = X239, read-out: Minimum Inhibitory Concentration, Table II

SMILES | MIC [1] | MIC [2] | MIC (Salmonella typhosa SA12) | MIC [3] | MIC [4] | MIC (Serratia marcescens X99) | MIC [5] | MIC (Proteus morganii PR15) | MIC [7] | MIC [9] | MIC (Proteus morganii PR2) | MIC [13] | MIC [14] | MIC [16, 22] | MIC [16, 23] | MIC [17] | MIC [18] | MIC [19] | MIC [20] | other results
CN[C@@H]1[C@@H](O[C@H]2O[C@H](COS(C)(=O)=O)[C@@H](N)[C@H](O)[C@H]2O)O[C@H]2C[C@@H](N)[C@@H](O[C@H]3[C@H](O)[C@@H](O)[C@H](N)C[C@@H]3N)O[C@@H]2[C@@H]1O [Test Compound 1, 6"-O-(Methanesulfonyl)apramycin] | 4 µg/mL (≈ 6.48 µM) | > 128 µg/mL | 4 µg/mL (≈ 6.48 µM) | 2 µg/mL (≈ 3.24 µM) | 128 µg/mL (≈ 207 µM) | 4 µg/mL (≈ 6.48 µM) | 4 µg/mL (≈ 6.48 µM) | 32 µg/mL (≈ 51.8 µM) | 4 µg/mL (≈ 6.48 µM) | 16 µg/mL (≈ 25.9 µM) | 32 µg/mL (≈ 51.8 µM) | 1 µg/mL (≈ 1.62 µM) | > 128 µg/mL | 128 µg/mL (≈ 207 µM) | 4 µg/mL (≈ 6.48 µM) | 4 µg/mL (≈ 6.48 µM) | 4 µg/mL (≈ 6.48 µM) | 32 µg/mL (≈ 51.8 µM) | 4 µg/mL (≈ 6.48 µM) | MIC ([6]; PS25, Table 1, agar dilution, read-out: Minimum Inhibitory Concentration): 64 µg/mL (≈ 104 µM); MIC (Proteus inconstans PV25; PV25, Table 1, agar dilution, read-out: Minimum Inhibitory Concentration): 8 µg/mL (≈ 13 µM); MIC ([8]; X48, Table 1, agar dilution, read-out: Minimum Inhibitory Concentration): 128 µg/mL (≈ 207 µM); MIC (Escherichia coli EC14; EC14, Table II, agar dilution, read-out: Minimum Inhibitory Concentration): 8 µg/mL (≈ 13 µM); MIC ([10]; EN453, Table 1, agar dilution, read-out: Minimum Inhibitory Concentration): 8 µg/mL (≈ 13 µM); MIC ([11]; KL2, Table 1, agar dilution, read-out: Minimum Inhibitory Concentration): 8 µg/mL (≈ 13 µM); MIC ([12]; PS15, Table 1, agar dilution, read-out: Minimum Inhibitory Concentration): 128 µg/mL (≈ 207 µM); MIC (Proteus morganii PR1; PR1, Table 1, agar dilution, read-out: Minimum Inhibitory Concentration): 8 µg/mL (≈ 13 µM); MIC ([15]; SF2, Table 1, agar dilution, read-out: Minimum Inhibitory Concentration): 128 µg/mL (≈ 207 µM); MIC (Salmonella typhimurium): 4 µg/mL (≈ 6.48 µM); MIC ([21]; Pseudomonas aeruginosa, 4276, Table 1, agar dilution, read-out: Minimum Inhibitory Concentration): > 128 µg/mL; MIC (Serratia marcescens SE3; SE3, Table 1, read-out: Minimum Inhibitory Concentration): 8 µg/mL (≈ 13 µM); MIC (Serratia marcescens SE3; SE3, Table II, read-out: Minimum Inhibitory Concentration): 16 µg/mL (≈ 25.9 µM); MIC (Serratia marcescens SE2; SE2, Table 1, agar dilution, read-out: Minimum Inhibitory Concentration): 8 µg/mL (≈ 13 µM)
CN[C@@H]1[C@@H](O[C@H]2O[C@H](CCl)[C@@H](N)[C@H](O)[C@H]2O)O[C@H]2C[C@@H](N)[C@@H](O[C@H]3[C@H](O)[C@@H](O)[C@H](N)C[C@@H]3N)O[C@@H]2[C@@H]1O [Test Compound 3, 6"-Chloro-6"-Deoxyapramycin] | 4 µg/mL (≈ 7.17 µM) | 32 µg/mL (≈ 57.3 µM) | 2 µg/mL (≈ 3.58 µM) | 1 µg/mL (≈ 1.79 µM) | 32 µg/mL (≈ 57.3 µM) | 4 µg/mL (≈ 7.17 µM) | 16 µg/mL (≈ 28.7 µM) | 8 µg/mL (≈ 14.3 µM) | 2 µg/mL (≈ 3.58 µM) | 8 µg/mL (≈ 14.3 µM) | 32 µg/mL (≈ 57.3 µM) | 2 µg/mL (≈ 3.58 µM) | > 128 µg/mL | 8 µg/mL (≈ 14.3 µM) | 2 µg/mL (≈ 3.58 µM) | 1 µg/mL (≈ 1.79 µM) | 4 µg/mL (≈ 7.17 µM) | 8 µg/mL (≈ 14.3 µM) | 4 µg/mL (≈ 7.17 µM) | MIC ([6]; PS25, read-out: Minimum Inhibitory Concentration): 16 µg/mL (≈ 28.7 µM); MIC (Proteus inconstans PV25; PV25, read-out: Minimum Inhibitory Concentration): 4 µg/mL (≈ 7.17 µM); MIC ([8]; X48, read-out: Minimum Inhibitory Concentration): 16 µg/mL (≈ 28.7 µM); MIC (Escherichia coli EC14; EC14, read-out: Minimum Inhibitory Concentration): 16 µg/mL (≈ 28.7 µM); MIC ([10]; EN453, read-out: Minimum Inhibitory Concentration): 4 µg/mL (≈ 7.17 µM); MIC ([11]; KL2, read-out: Minimum Inhibitory Concentration): 4 µg/mL (≈ 7.17 µM); MIC ([12]; PS15, read-out: Minimum Inhibitory Concentration): 16 µg/mL (≈ 28.7 µM); MIC (Proteus morganii PR1; PR1, read-out: Minimum Inhibitory Concentration): 4 µg/mL (≈ 7.17 µM); MIC ([15]; SF2, read-out: Minimum Inhibitory Concentration): 16 µg/mL (≈ 28.7 µM); MIC (Salmonella typhimurium; Table II, agar dilution): 8 µg/mL (≈ 14.3 µM); MIC (Erwinia amylovora): 1 µg/mL (≈ 1.79 µM); MIC ([21]; Pseudomonas aeruginosa, 4276, read-out: Minimum Inhibitory Concentration): 16 µg/mL (≈ 28.7 µM); MIC (Serratia marcescens SE3; SE3, read-out: Minimum Inhibitory Concentration, Table 1): 4 µg/mL (≈ 7.17 µM); MIC (Serratia marcescens SE3; SE3, read-out: Minimum Inhibitory Concentration, Table II): 16 µg/mL (≈ 28.7 µM); MIC (Serratia marcescens SE2; SE2, read-out: Minimum Inhibitory Concentration): 4 µg/mL (≈ 7.17 µM)
